Values of other authors, collected in patent US20030157192A1, “Low temperature disinfectant/sterilant for medical devices and topical applications” (Healthpoint, Ltd., priority 2002, published 2003).

Key:
[1] = room temperature; low pH
[2] = tested on: mouse skin; conditions: tested on mouse skin

SMILES | minimum time required to pass the AOAC Sporicidal Test [1] [h] | tumor promotion [2]
OO [6% hydrogen peroxide, hydrogen peroxide] | ≥ 6 | –
CC(=O)OO [Peracetic acid] | – | tumor-promoting agent
